Reference: patent publication US10072003B2, “Tetrahydronaphthyridine derivatives as mGluR2-negative allosteric modulators, compositions, and their use” (Merck Sharp & Dohme Corp., priority 2014, dated 2018)

The compounds below were run against recombinant human mGluR2 (Homo sapiens (Human), UniProt Q14416) (assay: FLIPR Ca2+ mobilization antagonist assay in CHO dhfr- cells expressing human mGluR2 and Gα16). Conditions: antagonist response after addition of 2,500 nM glutamate, Fluo-4 AM, FLIPR384.
recombinant human mGluR2, sequence (Q14416 19-872): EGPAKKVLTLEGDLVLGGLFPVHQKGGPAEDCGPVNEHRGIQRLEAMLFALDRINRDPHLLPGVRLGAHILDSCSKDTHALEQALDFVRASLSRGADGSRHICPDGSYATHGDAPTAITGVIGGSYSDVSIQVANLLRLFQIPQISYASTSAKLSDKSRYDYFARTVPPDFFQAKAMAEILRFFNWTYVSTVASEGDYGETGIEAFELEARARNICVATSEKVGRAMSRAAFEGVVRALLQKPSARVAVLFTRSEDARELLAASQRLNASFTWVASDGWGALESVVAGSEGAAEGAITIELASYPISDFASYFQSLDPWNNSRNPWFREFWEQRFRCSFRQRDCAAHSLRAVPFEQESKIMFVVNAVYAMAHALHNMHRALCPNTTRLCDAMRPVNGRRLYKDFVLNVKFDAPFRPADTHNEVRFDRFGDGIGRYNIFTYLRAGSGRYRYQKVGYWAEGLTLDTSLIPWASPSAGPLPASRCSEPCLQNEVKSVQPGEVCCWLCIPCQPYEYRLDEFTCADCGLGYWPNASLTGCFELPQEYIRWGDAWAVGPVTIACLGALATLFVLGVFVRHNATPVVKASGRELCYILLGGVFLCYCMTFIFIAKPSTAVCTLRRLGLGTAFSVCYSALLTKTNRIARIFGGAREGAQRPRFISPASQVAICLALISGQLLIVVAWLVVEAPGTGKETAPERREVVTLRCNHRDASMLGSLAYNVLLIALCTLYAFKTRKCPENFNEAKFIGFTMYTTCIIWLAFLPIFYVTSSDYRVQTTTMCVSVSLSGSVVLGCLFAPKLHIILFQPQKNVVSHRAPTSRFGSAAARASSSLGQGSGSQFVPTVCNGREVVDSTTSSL
Assay type: cell-based
Method: Antagonist constants are determined as follows. The compounds of the invention were tested in a fluorescence laser imaging plate reader based assay. This assay is a common functional assay to monitor Ca2+ mobilization in whole cells expressing recombinant receptor coupled with a promiscuous G-protein. CHO dhfr-cells stably expressing recombinant human mGluR2 and Gα16 loaded with Fluo-4 AM (Invitrogen, Carlsbad Calif.) were treated with various concentrations of antagonists of compounds and the Ca2+ response was monitored on a FLIPR384 (Molecular Devices, Sunnydale Calif.) for agonist activity. Then 2,500 nM glutamate was added and the antagonist response was monitored. The maximum calcium response at each concentration of compound for agonist or antagonist were plotted as dose responses and the curves were fitted with a four parameter logistic equation giving IC50 and Hill coefficient using the iterative non linear curve fitting software ADA (Merck & Co). Data in the following table represent activities in the antagonist assay.
An IC50 of 22.3 nM was found for `NC(=O)c1cc(-c2ccc(F)cc2)c2c(n1)CN(C(c1cccnc1)C(F)(F)F)CC2` (racemic) [Example 3-1B, (S) and (R)-4-(4-fluorophenyl)-7-(2,2,2-trifluoro-1-(pyridin-3-yl)ethyl)-5,6,7,8-tetrahydro-1,7-naphthyridine-2-carboxamide] in this work.
An IC50 of 12.7 nM was found for `NC(=O)c1cc(-c2ccc(F)cc2F)c2c(n1)CN(CC(O)c1ccccc1)CC2` (racemic) [Example 8-1B, (S) and (R)-4-(2,4-difluorophenyl)-7-(2-hydroxy-2-phenylethyl)-5,6,7,8-tetrahydro-1,7-naphthyridine-2-carboxamide] in this work.
An IC50 of 12 nM was found for `NC(=O)c1cc(-c2ccc(Cl)cc2F)c2c(n1)CN(Cc1cccnc1)CC2` [Example 10-3, 4-(4-chloro-2-fluorophenyl)-7-(pyridin-3-ylmethyl)-5,6,7,8-tetrahydro-1,7-naphthyridine-2-carboxamide] in this work.
An IC50 of 153 nM was found for `Cc1cc(-c2cc(C(N)=O)nc3c2CCN(Cc2ccnc(C(F)(F)F)c2)C3)ccn1` [Example 2-14, 4-(2-methylpyridin-4-yl)-7-{[2-(trifluoromethyl)pyridin-4-yl]methyl}-5,6,7,8-tetrahydro-1,7-naphthyridine-2-carboxamide] in this work.
An IC50 of 20.4 nM was found for `NC(=O)c1cc(-c2ccc(F)c(F)c2)c2c(n1)CN(Cc1ccnc(C(F)(F)F)c1)CC2` [Example 2-4, 4-(3,4-difluorophenyl)-7-{[2-(trifluoromethyl)pyridin-4-yl]methyl}-5,6,7,8-tetrahydro-1,7-naphthyridine-2-carboxamide] in this work.
An IC50 of 11 nM was found for `NC(=O)c1cc(-c2c(F)cc(Cl)cc2F)c2c(n1)CN(Cc1ccnn1C(F)F)CC2` [Example 2-20, 4-(4-chloro-2,6-difluorophenyl)-7-{[1-(difluoromethyl)-1H-pyrazol-5-yl]methyl}-5,6,7,8-tetrahydro-1,7-naphthyridine-2-carboxamide] in this work.
An IC50 of 179 nM was found for `CC(C)(C)[C@H]1C[C@@H](CN2CCc3c(-c4ccc(F)cc4)cc(C(N)=O)nc3C2)CCO1` [Example 1-3B, 7-(((2R,4S)-2-(tert-butyl)tetrahydro-2H-pyran-4-yl)methyl)-4-(4-fluorophenyl)-5,6,7,8-tetrahydro-1,7-naphthyridine-2-carboxamide] in this work.
An IC50 of 9.7 nM was found for `Cc1nc(CN2CCc3c(-c4ccc(Cl)cc4F)cc(C(N)=O)nc3C2)no1` [Example 9-2, 4-(4-chloro-2-fluorophenyl)-7-[(5-methyl-1,2,4-oxadiazol-3-yl)methyl]-5,6,7,8-tetrahydro-1,7-naphthyridine-2-carboxamide] in this work.
An IC50 of 117 nM was found for `CC1(C)CCC(c2cc(C(N)=O)nc3c2CCN(Cc2ccnc(C(F)(F)F)c2)C3)CC1` [Example 4-1, 4-(4,4-dimethylcyclohexyl)-7-((2-(trifluoromethyl)pyridin-4-yl)methyl)-5,6,7,8-tetrahydro-1,7-naphthyridine-2-carboxamide] in this work.
An IC50 of 28.2 nM was found for `NC(=O)c1cc(-c2ccc(F)cc2)c2c(n1)CN(Cc1ccccc1C(N)=O)CC2` [Example 2-2, 7-(2-carbamoylbenzyl)-4-(4-fluorophenyl)-5,6,7,8-tetrahydro-1,7-naphthyridine-2-carboxamide] in this work.
An IC50 of 117 nM was found for `NC(=O)c1ccc(CN2CCc3c(-c4ccc(F)cc4)cc(C(N)=O)nc3C2)cc1` [Example 2-3, 7-(4-carbamoylbenzyl)-4-(4-fluorophenyl)-5,6,7,8-tetrahydro-1,7-naphthyridine-2-carboxamide] in this work.
An IC50 of 115 nM was found for `Cc1cn(-c2cc(C(N)=O)nc3c2CCN(Cc2ccnc(C(F)(F)F)c2)C3)cn1` [Example 5-1, 4-(4-methyl-1H-imidazol-1-yl)-7-((2-(trifluoromethyl)pyridin-4-yl)methyl)-5,6,7,8-tetrahydro-1,7-naphthyridine-2-carboxamide] in this work.
An IC50 of 49.7 nM was found for `NC(=O)c1cc(C2=CCC3(CC2)CC3)c2c(n1)CN(Cc1ccnc(C(F)(F)F)c1)CC2` [Example 4-2, 4-spiro[2.5]oct-5-en-6-yl-7-{[2-(trifluoromethyl)pyridin-4-yl]methyl}-5,6,7,8-tetrahydro-1,7-naphthyridine-2-carboxamide] in this work.
An IC50 of 13.2 nM was found for `NC(=O)c1cc(-c2c(F)cc(F)cc2F)c2c(n1)CN(Cc1ccnc(C(F)(F)F)n1)CC2` [Example 11-6, 7-{[2-(trifluoromethyl)pyrimidin-4-yl]methyl}-4-(2,4,6-trifluorophenyl)-5,6,7,8-tetrahydro-1,7-naphthyridine-2-carboxamide] in this work.
An IC50 of 42.7 nM was found for `Cc1cn(-c2cc(C(N)=O)nc3c2CCN(Cc2ccnc(C(F)(F)F)c2)C3)nc1C` [Example 5-7, 4-(3,4-dimethyl-1H-pyrazol-1-yl)-7-{[2-(trifluoromethyl)pyridin-4-yl]methyl}-5,6,7,8-tetrahydro-1,7-naphthyridine-2-carboxamide] in this work.
An IC50 of 12.3 nM was found for `CC1c2nc(C(N)=O)cc(-c3ccc(F)cc3F)c2CCN1CC1CCOC(C)(C)C1` (single isomer, unassigned) [Example 1-18] in this work.
An IC50 of 6.5 nM was found for `NC(=O)c1cc(-c2c(F)cc(Cl)cc2F)c2c(n1)CN(Cc1ccnc(C(F)(F)F)n1)CC2` [Example 11-9, 4-(4-chloro-2,6-difluorophenyl)-7-{[2-(trifluoromethyl)pyrimidin-4-yl]methyl}-5,6,7,8-tetrahydro-1,7-naphthyridine-2-carboxamide] in this work.
An IC50 of 129 nM was found for `NC(=O)c1cc(-c2ccc(F)cc2)c2c(n1)CN(C[C@H]1CCO[C@@H](C3CC3)C1)CC2` [Example 1-2B, 7-(((2R,4S)-2-cyclopropyltetrahydro-2H-pyran-4-yl)methyl)-4-(4-fluorophenyl)-5,6,7,8-tetrahydro-1,7-naphthyridine-2-carboxamide] in this work.
An IC50 of 13.8 nM was found for `Cc1cc(CN2CCc3c(-c4ccc(F)cc4F)cc(C(N)=O)nc3C2)n(C)n1` [Example 1-7, 4-(2,4-difluorophenyl)-7-[(1,3-dimethyl-1H-pyrazol-5-yl)methyl]-5,6,7,8-tetrahydro-1,7-naphthyridine-2-carboxamide] in this work.
An IC50 of 28.5 nM was found for `CC1(C)CC(CN2CCc3c(-c4ccc(F)cc4F)cc(C(N)=O)nc3C2(C)C)CCO1` (racemic) [Example 1-23B, (R) and (S)-4-(2,4-difluorophenyl)-7-((2,2-dimethyltetrahydro-2H-pyran-4-yl)methyl)-8,8-dimethyl-5,6,7,8-tetrahydro-1,7-naphthyridine-2-carboxamide] in this work.
An IC50 of 86.6 nM was found for `COc1cc(C(N2CCc3c(C4=CCC(C)CC4)cc(C(N)=O)nc3C2)C(F)(F)F)ccn1` (racemic) [Example 4-3B, 4-((S) and (R)-4-methylcyclohex-1-en-1-yl)-7-((S) and (R)-2,2,2-trifluoro-1-(2-methoxypyridin-4-yl)ethyl)-5,6,7,8-tetrahydro-1,7-naphthyridine-2-carboxamide] in this work.
An IC50 of 40.9 nM was found for `N#Cc1cnn(-c2cc(C(N)=O)nc3c2CCN(Cc2ccnc(C(F)(F)F)c2)C3)c1` [Example 2-25, 4-(4-cyano-1H-pyrazol-1-yl)-7-{[2-(trifluoromethyl)pyridin-4-yl]methyl}-5,6,7,8-tetrahydro-1,7-naphthyridine-2-carboxamide] in this work.
An IC50 of 9.6 nM was found for `COc1cc(C(N2CCc3c(-c4cnn(C)c4)cc(C(N)=O)nc3C2)C(F)(F)F)ccn1` (racemic) [Example 3-2A, (S) and (R)-4-(1-methyl-1H-pyrazol-4-yl)-7-(2,2,2-trifluoro-1-(2-methoxypyridin-4-yl)ethyl)-5,6,7,8-tetrahydro-1,7-naphthyridine-2-carboxamide] in this work.
An IC50 of 31 nM was found for `CC1(CN2CCc3c(-c4ccc(Cl)cc4F)cc(C(N)=O)nc3C2)COC1` [Example 10-1, 4-(4-chloro-2-fluorophenyl)-7-((3-methyloxetan-3-yl)methyl)-5,6,7,8-tetrahydro-1,7-naphthyridine-2-carboxamide] in this work.
An IC50 of 23.9 nM was found for `Cn1ncnc1CN1CCc2c(-c3ccc(Cl)cc3F)cc(C(N)=O)nc2C1` [Example 9-4, 4-(4-chloro-2-fluorophenyl)-7-[(1-methyl-1H-1,2,4-triazol-5-yl)methyl]-5,6,7,8-tetrahydro-1,7-naphthyridine-2-carboxamide] in this work.
An IC50 of 98.2 nM was found for `NC(=O)c1cc(-c2ccc(F)cc2)c2c(n1)CN(C[C@H]1CCN[C@@H](C(F)(F)F)C1)CC2` [Example 1-1A, 4-(4-fluorophenyl)-7-(((2R,4S)-2-(trifluoromethyl)piperidin-4-yl)methyl)-5,6,7,8-tetrahydro-1,7-naphthyridine-2-carboxamide] in this work.
An IC50 of 11.5 nM was found for `NC(=O)c1cc(-c2ccc(F)cc2F)c2c(n1)CN(C(CO)c1ccccc1)CC2` (racemic) [Example 8-2B, (S) and (R)-4-(2,4-difluorophenyl)-7-(2-hydroxy-1-phenylethyl)-5,6,7,8-tetrahydro-1,7-naphthyridine-2-carboxamide] in this work.
An IC50 of 21.8 nM was found for `Cc1cnn(C)c1CN1CCc2c(-c3ccc(F)cc3F)cc(C(N)=O)nc2C1` [Example 1-10, 4-(2,4-difluorophenyl)-7-[(1,4-dimethyl-1H-pyrazol-5-yl)methyl]-5,6,7,8-tetrahydro-1,7-naphthyridine-2-carboxamide] in this work.
An IC50 of 5.7 nM was found for `NC(=O)c1cc(-c2ccc(F)cc2F)c2c(n1)CN(Cc1cc(C(F)(F)F)ncn1)CC2` [Example 2-23, 4-(2,4-difluorophenyl)-7-{[6-(trifluoromethyl)pyrimidin-4-yl]methyl}-5,6,7,8-tetrahydro-1,7-naphthyridine-2-carboxamide] in this work.
An IC50 of 45.2 nM was found for `NC(=O)c1cc(-c2c(F)cccc2Cl)c2c(n1)CN(Cc1ccnc(C(F)(F)F)n1)CC2` [Example 11-7, 4-(2-chloro-6-fluorophenyl)-7-{[2-(trifluoromethyl)pyrimidin-4-yl]methyl}-5,6,7,8-tetrahydro-1,7-naphthyridine-2-carboxamide] in this work.
